# In PMC12389269, “Heteroaryl-Capped Hydroxamic Acid Derivatives with Varied Linkers: Synthesis and Anticancer Evaluation with Various Apoptosis Analyses in Breast Cancer Cells, Including Docking, Simulation, DFT, and ADMET Studies” (Pharmaceuticals, 2025):
# “Also recorded” adds a separate entry of the source.
# Experiments:
# MCF-7 cells [1] = experiment: Apoptosis assay, annexin V/PI flow cytometry; type: cell-based, human; conditions: 24 h
# Description: Qualitative analysis of different stages of apoptosis in MCF-7 cells using AO/EtBr dual staining was further quantitatively validated using annexin V/PI staining. Annexin V binds with the exposed phosphatidyl serine of apoptotic cells in a calcium-dependent manner and permits the determination of a number of cells in different stages of apoptosis. At the same time, PI binds with the nucleic acid of dead cells. In brief, cells were plated in a 6-well cell culture plate followed by exposure to lower, IC50, and higher concentrations of compound VI(i), as described in the above experiments. Following 24 h of incubation, treated cells were harvested using […] EDTA; then, annexin V/PI staining was performed, which was incubated for 30 min at 37 °C. The population of the apoptotic cells was examined by evaluating the cell suspension using a flow cytometer.
# HEK-293 cells = experiment: MTT cytotoxicity assay, normal cell line HEK-293; type: cell-based
# Description: (§1) Following an extensive review of the literature, we selected human breast cancer (MCF-7, MDA-MB-231) and lung cancer (A549) cell lines to evaluate the anticancer potential of the synthesized compounds, and some compounds with good anti-proliferation activity were again tested to evaluate their cytotoxic potential on A-549, MCF-7, and MDA-MB-231. The same were also tested on one non-cancerous/normal (HEK-293) cell line. All the cell lines for the required screening were developed in a suitable medium comprising 10% FBS and 2mM L-glutamine. Cancerous and non-cancerous/normal cell lines were selected for the cell proliferation and cytotoxicity assay and maintained with 5% CO2 at 37 °C in a CO2 incubator with 100% relative humidity for one complete day before the addition of experimental drugs.
# (§2) MTT, a well-known colorimetric cytotoxic assay was performed to validate the cytotoxicity of the selected compounds—VI(b), VI(c), VI(e), and VI(i)—against three different human tumor cell lines [MCF-7, MDA-MB-231, A549] and a normal cell line [HEK293]. The seeding of 1 × 10^4 cells onto each well was executed in a 96-well plate in triplicate, and to keep the cells viable, overnight incubation was undertaken at 37 °C with 5% CO2 in a CO2 incubator. […] The microplate reader was set at 570 nm to measure the absorbance of each well.
# MCF-7 cells [2] = experiment: MTT cytotoxicity assay, MCF-7; type: cell-based; conditions: Homo sapiens, MCF7, MCF-7, 24 h
# Description: as §1, §2
# [3] = tested on: MCF-7 (Human Breast Cancer Cell Line); experiment: SRB antiproliferative assay, MCF-7; type: cell-based; conditions: Homo sapiens, MCF7, MCF-7, 48 h, read-out: GI50
# Description: as §1
# Antiproliferative activity through an SRB assay was performed for all the synthesized compounds on A-549 and MCF-7 cell lines. Around 5000 cells/well were quarantined into a 96-well microtiter plate in 100 μL. The synthesized compounds were solubilized in DMSO and diluted to different concentrations before use. The final-drug-concentration aliquots were poured into microtiter wells, and the plates were incubated for 48 h in regular conditions. After adding the final drug concentration, the cells were allowed to set in place and incubated for 60 min. A total of 50 µL of SRB solution (0.4% w/v) in 1% CH3COOH was poured into each well. The plates were then incubated for 20 min at RT. During subsequent staining, the unbounded dye was removed, and the plate reader recorded the eluted bound stain at 540 nm with a 690 nm reference wavelength. The assay was performed precisely using the appropriate reagents and reaction situation, as per the reported procedure. ADR was selected as the reference drug.
# MCF-7 cells [4] = experiment: Cell cycle analysis, propidium iodide flow cytometry; type: cell-based, human
# Description: Apoptosis can also be determined based on the content of the DNA allocation at different stages of cell cycle distribution. The cultured MCF-7 cell line was washed, trypsinized, and seeded, followed by compound VI(i) exposure in a 6-well cell culture plate. Following this, cells were harvested using 1mM EDTA; then, to fix the cells, ice-cold ethanol was used, and overnight, cells were kept at −20 °C. Afterwards, cells were maintained at room temperature, followed by centrifugation at 3000 RPM for 7 min. Then, staining was conducted using propidium iodide, RNase A, and Triton-X in a buffer (phosphate-buffered saline). It was then analyzed using a flow cytometer.
# [5] = MCF-7, IC50 concentration (60 µg/mL)
# [6] = MCF-7, lower concentration (40 µg/mL)
# [7] = MCF-7, higher concentration (80 µg/mL)
structure (smiles),measurement,setting,value
"COc1ccc(-c2cnn(CCCCCC(=O)NO)n2)cc1 [VI(i), N-Hydroxy-6-(4-(4-methoxyphenyl)-2H-1,2,3-triazol-2-yl)hexanamide]",increment in early apoptotic cell population with respect to control,MCF-7 cells [1]; [5],9.58%
same,increment in late apoptotic cell population with respect to control,MCF-7 cells [1]; [5],12.6%
same,increment in early apoptotic cell population with respect to control,MCF-7 cells [1]; [6],5.61%
same,increment in late apoptotic cell population with respect to control,MCF-7 cells [1]; [6],4.14%
same,toxicity towards normal cell line,HEK-293 cells,low toxicity; also recorded: somewhat minimal toxicity
same,IC50,MCF-7 cells [2],60 µg/mL
same,GI50,[3],< 10 µg/mL
same,increase in cells arrested in G2/M phase compared to control,MCF-7 cells [4]; [5],15.91%
same,increase in cells arrested in S phase compared to control,MCF-7 cells [4]; [5],6.9%
same,increase in cells arrested in G2/M phase compared to control,MCF-7 cells [4]; [7],19.35%
same,increase in cells arrested in S phase compared to control,MCF-7 cells [4]; [7],6.07%
same,increase in cells arrested in G2/M phase compared to control,MCF-7 cells [4]; [6],11.98%
same,increase in cells arrested in S phase compared to control,MCF-7 cells [4]; [6],5.92%
